Experimental data published in patent US20230173075A1, “ENCAPSULATED COMPOSITIONS AND USE OF OCTENYLSUCCINIC ANHYDRIDE STARCH AS EMULSIFYING AGENT” (Kansas State University Research Foundation, priority 2020, published 2023).

What was measured:
[1] = X-ray diffraction (XRD) physical state; format: physicochemical; conditions: Example 2 (CU), fresh
Description: The physical state of the spray-dried emulsions samples was obtained with an X-ray diffractometer (APD 3520, Philips, Netherlands). The instrument was operated at 35 kV, 20 mA with Cu-Kα radiation, a theta-compensating slit, and a diffracted beam monochromator. Data were recorded between the diffraction angles (2θ) of 2° and 35°. Differential scanning calorimetry (DSC) measurement of spray dried drug powder was studied with the TA instrument Q200 V24.4 (New Castle, Del., USA) in a range of −20 to 120° C. under nitrogen flow of 70 mL/min. The spray-dried emulsions powder (3-5 mg) was accurately weighed into DSC stainless steel pan. An empty pan was used as a reference. The heating rate of 10° C./min was used.
The physical state of the spray-dried emulsions samples was obtained with an X-ray diffractometer (APD 3520, Philips, Netherlands). The instrument was operated at 35 kV, 20 mA with Cu-Kα radiation, a theta-compensating slit, and a diffracted beam monochromator. Data were recorded between the diffraction angles (2θ) of 2° and 35°.

[2] = FF in a hard gelatin capsule, launched 1975; cited from earlier work

| SMILES | XRD physical state [1] | maximum bioavailability [2] [%] |
| --- | --- | --- |
| COc1cc(/C=C/C(=O)CC(=O)/C=C/c2ccc(O)c(OC)c2)ccc1O [CU, Curcumin] | crystalline form | – |
| CC(C)OC(=O)C(C)(C)Oc1ccc(C(=O)c2ccc(Cl)cc2)cc1 [FF, Fenofibrate] | – | 60 |
